The source made the active and inactive calls.
Experiments:
[1] = target: 26S proteasome non-ATPase regulatory subunit 14 (Homo sapiens, UniProt O00487); assay: inhibition of proteasome subunit RPN11 – biochemical, fluorescence polarization, uHTS hits, confirmation (AID 602368); assay type: functional
[2] = target: 72 kDa type IV collagenase (Homo sapiens, UniProt P08253); assay: Dose Response validation of uHTS RPN11 inhibitor hits using a MMP-2 Fluorescence assay.; assay type: functional
[3] = target: Prothrombin (Bos taurus, UniProt P00735); assay: thrombin protease inhibitors – biochemical, fluorescence polarization, uHTS hits, dose response (AID 602369); assay type: functional
[4] = target: Peroxisome proliferator-activated receptor gamma/Nuclear receptor coactivator 1 (Homo sapiens, UniProt P37231); assay: (§1) TR-FRET dose response biochemical High Throughput Screening assay for agonists of the steroid receptor coactivator 1 (SRC-1) recruitment by the peroxisome proliferator-activated receptor gamma (PPAR gamma): non-selective agonists. [Related pubchem assays (depositor defined):AID1300, AID1808, AID504735, AID631]; assay type: protein assay
Sequence of Peroxisome proliferator-activated receptor gamma/Nuclear receptor coactivator 1 (P37231 whole entry): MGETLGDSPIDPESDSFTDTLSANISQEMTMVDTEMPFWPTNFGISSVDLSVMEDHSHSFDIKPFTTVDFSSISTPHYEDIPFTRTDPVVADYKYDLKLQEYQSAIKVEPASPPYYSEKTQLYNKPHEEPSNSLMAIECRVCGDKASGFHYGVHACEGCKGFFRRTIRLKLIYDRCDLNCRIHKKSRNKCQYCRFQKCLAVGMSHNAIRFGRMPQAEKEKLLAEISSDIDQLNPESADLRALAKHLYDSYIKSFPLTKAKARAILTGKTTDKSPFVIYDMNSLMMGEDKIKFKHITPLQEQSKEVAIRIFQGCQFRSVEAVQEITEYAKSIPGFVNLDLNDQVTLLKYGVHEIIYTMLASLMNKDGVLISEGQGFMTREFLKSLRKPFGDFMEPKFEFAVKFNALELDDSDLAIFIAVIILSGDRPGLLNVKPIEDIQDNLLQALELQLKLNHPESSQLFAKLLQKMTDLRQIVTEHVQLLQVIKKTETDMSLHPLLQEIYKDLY
Sequence of Peroxisome proliferator-activated receptor gamma/Nuclear receptor coactivator 1 (Q15788 whole entry, further chain): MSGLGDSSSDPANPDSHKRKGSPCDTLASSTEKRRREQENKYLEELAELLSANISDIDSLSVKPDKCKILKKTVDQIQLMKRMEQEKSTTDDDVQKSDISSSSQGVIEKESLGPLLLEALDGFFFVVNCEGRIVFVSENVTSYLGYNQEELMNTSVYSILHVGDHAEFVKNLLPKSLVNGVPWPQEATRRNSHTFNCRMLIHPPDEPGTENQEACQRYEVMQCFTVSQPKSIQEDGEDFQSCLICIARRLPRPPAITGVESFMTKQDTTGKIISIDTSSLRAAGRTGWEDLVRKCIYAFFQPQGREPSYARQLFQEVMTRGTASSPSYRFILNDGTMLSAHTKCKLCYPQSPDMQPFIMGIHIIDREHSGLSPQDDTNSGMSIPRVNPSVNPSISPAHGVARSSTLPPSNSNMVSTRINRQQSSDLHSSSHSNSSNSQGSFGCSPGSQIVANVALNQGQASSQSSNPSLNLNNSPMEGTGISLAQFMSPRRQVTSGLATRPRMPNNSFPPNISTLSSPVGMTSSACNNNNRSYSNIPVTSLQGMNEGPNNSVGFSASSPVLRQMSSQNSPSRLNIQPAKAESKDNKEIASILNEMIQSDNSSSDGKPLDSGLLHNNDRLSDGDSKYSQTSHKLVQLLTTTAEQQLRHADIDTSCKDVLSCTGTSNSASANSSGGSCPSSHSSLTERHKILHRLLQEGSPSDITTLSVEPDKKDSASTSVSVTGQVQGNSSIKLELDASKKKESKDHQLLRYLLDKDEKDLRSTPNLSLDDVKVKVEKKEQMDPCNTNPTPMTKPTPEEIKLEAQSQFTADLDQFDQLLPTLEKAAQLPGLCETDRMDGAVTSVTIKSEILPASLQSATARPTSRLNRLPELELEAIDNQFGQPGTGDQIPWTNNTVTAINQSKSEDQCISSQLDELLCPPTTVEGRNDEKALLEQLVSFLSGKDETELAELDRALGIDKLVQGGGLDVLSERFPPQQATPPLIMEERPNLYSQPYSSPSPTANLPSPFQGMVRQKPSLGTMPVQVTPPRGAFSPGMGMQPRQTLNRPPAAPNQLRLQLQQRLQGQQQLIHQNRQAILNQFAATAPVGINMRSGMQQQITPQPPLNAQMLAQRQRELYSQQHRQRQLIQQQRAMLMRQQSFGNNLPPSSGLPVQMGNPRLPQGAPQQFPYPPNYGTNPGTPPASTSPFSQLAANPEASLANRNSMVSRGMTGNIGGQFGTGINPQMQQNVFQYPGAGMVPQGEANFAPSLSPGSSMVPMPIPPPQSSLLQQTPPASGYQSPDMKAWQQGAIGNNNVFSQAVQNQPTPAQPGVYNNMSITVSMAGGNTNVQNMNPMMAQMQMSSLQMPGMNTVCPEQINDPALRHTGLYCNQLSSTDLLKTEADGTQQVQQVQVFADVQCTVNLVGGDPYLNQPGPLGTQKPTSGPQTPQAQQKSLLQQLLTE

[5] = target: Peroxisome proliferator-activated receptor gamma/Nuclear receptor coactivator 3 (Homo sapiens, UniProt P37231); assay: as §1, with “3 (SRC-3)” for “1 (SRC-1)”, “assays: 1301 (Confirmation screen.), 1048 (Primary screen.)]” for “assays (depositor defined):AID1300, AID1808, AID504735, AID631]”; assay type: functional
[6] = target: Peroxisome proliferator-activated receptor gamma/Nuclear receptor coactivator 2 (Homo sapiens, UniProt P37231); assay: TR-FRET dose response biochemical High Throughput Screening assay for agonists of the steroid receptor coactivator 2 (SRC-2) recruitment by the peroxisome proliferator-activated receptor gamma (PPAR gamma): non-selective agonists. [Related pubchem assays: 1297, 1032 ]; assay type: functional
[7] = system: Vero; assay: cells; assay type: functional; settings: Chlorocebus sabaeus
[8] = system: BJ; assay: BJ-TERT fibroblast viability loss – cell-based, RAS-independent, luminescence, dose response (AID 1933); assay type: functional; settings: Homo sapiens
[9] = system: BJ; assay: cells; assay type: functional, cell-based; settings: Homo sapiens
[10] = system: BJ; assay: BJ-TERT-LT-ST fibroblast viability loss – cell-based, RAS-independent, luminescence, dose response (AID 1935); assay type: functional; settings: Homo sapiens;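 further: BJ fibroblasts immortalized with TERT plus LT and ST oncogenes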
[11] = DRD fibroblast viability loss – cell-based, non-viral oncogenic, luminescence, dose response (AID 1934); assay type: functional; settings: Homo sapiens
[12] = system: BJ; assay: growth inhibition of engineered Ras-driven BJ cells – cell-based, alamar blue fluorescence, cherrypicked samples, dose response (AID 2631); assay type: functional; settings: Homo sapiens;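 further: confirmatory dose-response assay in RAS-dependent BJ fibroblasts engineered with TERT, LT and ST, with cytotoxicity read by fluorescence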
[13] = target: Beta-galactosidase (Escherichia coli, UniProt Q8VNN2); assay: PubChem AID 485352; assay type: functional
Sequence of Beta-galactosidase (Q8VNN2 whole entry): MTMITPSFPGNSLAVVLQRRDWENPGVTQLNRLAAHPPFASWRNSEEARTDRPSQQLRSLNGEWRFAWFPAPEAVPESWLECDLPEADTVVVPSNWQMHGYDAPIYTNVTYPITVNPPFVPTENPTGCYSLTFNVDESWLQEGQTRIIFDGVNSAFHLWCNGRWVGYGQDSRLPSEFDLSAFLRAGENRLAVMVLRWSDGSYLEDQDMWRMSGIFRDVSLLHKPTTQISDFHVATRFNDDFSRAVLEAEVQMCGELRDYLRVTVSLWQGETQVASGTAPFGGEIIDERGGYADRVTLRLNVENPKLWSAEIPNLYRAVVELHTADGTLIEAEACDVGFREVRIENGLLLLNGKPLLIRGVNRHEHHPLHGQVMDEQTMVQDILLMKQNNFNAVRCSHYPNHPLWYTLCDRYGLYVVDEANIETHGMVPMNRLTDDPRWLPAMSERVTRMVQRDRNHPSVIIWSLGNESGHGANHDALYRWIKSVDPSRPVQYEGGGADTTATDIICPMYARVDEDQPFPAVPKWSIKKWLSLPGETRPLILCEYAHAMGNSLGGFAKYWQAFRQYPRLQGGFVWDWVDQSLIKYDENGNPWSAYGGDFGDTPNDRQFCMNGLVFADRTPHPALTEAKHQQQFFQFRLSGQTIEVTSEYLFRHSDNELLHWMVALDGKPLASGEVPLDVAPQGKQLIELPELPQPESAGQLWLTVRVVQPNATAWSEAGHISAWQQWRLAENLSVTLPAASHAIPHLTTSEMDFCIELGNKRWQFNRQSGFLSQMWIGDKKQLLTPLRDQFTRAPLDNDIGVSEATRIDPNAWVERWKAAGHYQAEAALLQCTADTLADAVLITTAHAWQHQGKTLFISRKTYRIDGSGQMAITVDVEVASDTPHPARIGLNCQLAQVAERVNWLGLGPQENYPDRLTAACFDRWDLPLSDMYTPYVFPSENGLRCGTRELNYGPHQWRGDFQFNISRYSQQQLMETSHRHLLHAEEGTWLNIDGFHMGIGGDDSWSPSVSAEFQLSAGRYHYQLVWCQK

[14] = target: T1, Type-1 angiotensin II receptor (Homo sapiens, UniProt P30556); assay: antagonism of angiotensin II type 1 receptor – cell-based, uHTS hits, selectivity assay for APJ receptor antagonist project, dose response (AID 463214); assay type: functional;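 further: antagonist potency against angiotensin II stimulated AT1 response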
T1 sequence (P30556 whole entry): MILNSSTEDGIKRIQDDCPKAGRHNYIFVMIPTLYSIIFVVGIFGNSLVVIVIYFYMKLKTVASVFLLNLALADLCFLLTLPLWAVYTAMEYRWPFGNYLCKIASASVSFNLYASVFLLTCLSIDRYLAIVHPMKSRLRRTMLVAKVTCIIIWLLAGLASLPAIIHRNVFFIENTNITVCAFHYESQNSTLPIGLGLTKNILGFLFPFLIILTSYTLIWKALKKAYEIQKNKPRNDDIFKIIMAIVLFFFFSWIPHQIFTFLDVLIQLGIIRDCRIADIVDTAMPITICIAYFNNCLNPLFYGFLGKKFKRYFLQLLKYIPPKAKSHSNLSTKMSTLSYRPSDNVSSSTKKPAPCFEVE

[15] = microbe, parasite or virus in culture; assay type: functional; settings: Mycobacterium tuberculosis
[16] = viability of PTEN-deleted HCT116 cells – cell-based, HCT116 PTEN knockout, dose response (AID 1047); assay type: functional;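 further: HCT116 colon tumor cells with PTEN knocked out; cells exposed to compound for 60 hours before readout; potency for loss of cell viability measured by luminescence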
[17] = viability of HCT116 lacking mutant beta-catenin – cell-based, human colon tumor, dose response (AID 1045); assay type: functional;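 further: HCT116 colon tumor cells with beta catenin knocked out; cells exposed to compound for 60 hours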
[18] = target: G-protein coupled receptor 55 (Homo sapiens, UniProt Q9Y2T6); assay: selective activators of receptor GPR55 – imaging, U2OS cells, beta-arrestin-GFP redistribution, primary screen (AID 1961); assay type: functional
Sequence of G-protein coupled receptor 55 (Q9Y2T6 whole entry): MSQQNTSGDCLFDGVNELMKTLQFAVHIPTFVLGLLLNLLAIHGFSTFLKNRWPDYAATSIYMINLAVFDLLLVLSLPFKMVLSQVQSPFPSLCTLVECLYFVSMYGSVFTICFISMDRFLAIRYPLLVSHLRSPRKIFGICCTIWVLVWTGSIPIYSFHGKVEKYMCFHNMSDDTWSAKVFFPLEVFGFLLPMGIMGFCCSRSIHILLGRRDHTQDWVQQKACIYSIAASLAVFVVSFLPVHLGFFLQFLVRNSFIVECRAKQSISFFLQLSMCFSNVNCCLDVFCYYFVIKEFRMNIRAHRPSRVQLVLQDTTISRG

[19] = target: Cytochrome P450 2C9 (Homo sapiens, UniProt P11712)
[20] = system: HEK293; assay: inhibition of NOD1-driven NF-kB reporter – cell-based, luminescence, uHTS, primary screen (AID 1578); assay type: functional; settings: Homo sapiens
[21] = system: HEK293; assay: cells; assay type: functional, cell-based; settings: Homo sapiens
[22] = system: HEK293; assay: cells; assay type: functional, cell-based; settings: Homo sapiens; remark: listed apart in the source
[23] = system: HEK293; assay: NOD2 signaling inhibitors in MDP-stimulated cells, cell-based, uHTS, luminescence (AID 2001); assay type: functional; settings: Homo sapiens
[24] = target: T2, Aminopeptidase N (Plasmodium falciparum FcB1/Columbia, UniProt O96935); assay: malaria alanyl aminopeptidase activity blockers – biochemical, fluorogenic H-Leu-NHMec substrate, 1536-well (AID 1445); parameters: species or system Plasmodium falciparum 3D7, 3D7
T2 sequence (O96935 whole entry): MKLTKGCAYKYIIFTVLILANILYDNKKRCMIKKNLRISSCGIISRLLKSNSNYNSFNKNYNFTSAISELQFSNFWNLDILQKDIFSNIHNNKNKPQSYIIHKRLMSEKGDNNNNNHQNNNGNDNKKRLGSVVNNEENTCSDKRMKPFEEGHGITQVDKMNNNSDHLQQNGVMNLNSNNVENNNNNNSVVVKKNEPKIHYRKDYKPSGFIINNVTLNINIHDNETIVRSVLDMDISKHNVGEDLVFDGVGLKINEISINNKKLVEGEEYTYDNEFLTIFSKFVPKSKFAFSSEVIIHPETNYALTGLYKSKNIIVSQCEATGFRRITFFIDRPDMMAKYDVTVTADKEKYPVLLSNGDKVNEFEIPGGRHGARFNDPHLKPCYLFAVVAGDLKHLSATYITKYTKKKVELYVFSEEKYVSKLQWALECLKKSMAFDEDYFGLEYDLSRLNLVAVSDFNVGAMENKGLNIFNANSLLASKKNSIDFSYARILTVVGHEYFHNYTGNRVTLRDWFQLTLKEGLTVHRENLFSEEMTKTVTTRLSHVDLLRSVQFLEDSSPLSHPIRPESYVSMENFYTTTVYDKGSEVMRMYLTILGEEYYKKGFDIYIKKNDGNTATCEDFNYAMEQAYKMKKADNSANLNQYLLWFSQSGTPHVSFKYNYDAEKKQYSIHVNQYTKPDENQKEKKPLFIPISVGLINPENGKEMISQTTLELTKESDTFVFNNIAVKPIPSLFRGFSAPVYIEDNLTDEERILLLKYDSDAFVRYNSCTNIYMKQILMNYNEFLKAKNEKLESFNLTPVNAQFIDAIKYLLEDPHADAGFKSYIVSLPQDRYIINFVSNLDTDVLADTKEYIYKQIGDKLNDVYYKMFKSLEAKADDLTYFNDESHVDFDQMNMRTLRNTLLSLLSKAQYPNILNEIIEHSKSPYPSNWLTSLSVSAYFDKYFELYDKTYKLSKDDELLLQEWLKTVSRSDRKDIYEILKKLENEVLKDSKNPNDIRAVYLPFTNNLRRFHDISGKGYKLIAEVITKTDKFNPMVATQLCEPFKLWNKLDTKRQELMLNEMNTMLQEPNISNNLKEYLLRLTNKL

[25] = target: DNA dC->dU-editing enzyme APOBEC-3A (Homo sapiens, UniProt P31941); assay: A3A deaminase inhibition for selectivity – biochemical, dose response (AID 504722); assay type: functional
Sequence of DNA dC->dU-editing enzyme APOBEC-3A (P31941 whole entry): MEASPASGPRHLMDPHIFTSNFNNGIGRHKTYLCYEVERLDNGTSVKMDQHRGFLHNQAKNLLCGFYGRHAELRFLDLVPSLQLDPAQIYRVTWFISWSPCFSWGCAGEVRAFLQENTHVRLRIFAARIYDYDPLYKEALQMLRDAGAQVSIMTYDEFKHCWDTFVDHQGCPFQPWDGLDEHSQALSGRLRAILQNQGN

[26] = target: DNA dC->dU-editing enzyme APOBEC-3G (Homo sapiens, UniProt Q9HC16); assay: Dose Response confirmation of small molecule APOBEC3G DNA Deaminase Inhibitors via a fluorescence-based single-stranded DNA deaminase assay. [Related pubchem assays (depositor defined):AID493012, AID493028]; assay type: functional
Sequence of DNA dC->dU-editing enzyme APOBEC-3G (Q9HC16 whole entry): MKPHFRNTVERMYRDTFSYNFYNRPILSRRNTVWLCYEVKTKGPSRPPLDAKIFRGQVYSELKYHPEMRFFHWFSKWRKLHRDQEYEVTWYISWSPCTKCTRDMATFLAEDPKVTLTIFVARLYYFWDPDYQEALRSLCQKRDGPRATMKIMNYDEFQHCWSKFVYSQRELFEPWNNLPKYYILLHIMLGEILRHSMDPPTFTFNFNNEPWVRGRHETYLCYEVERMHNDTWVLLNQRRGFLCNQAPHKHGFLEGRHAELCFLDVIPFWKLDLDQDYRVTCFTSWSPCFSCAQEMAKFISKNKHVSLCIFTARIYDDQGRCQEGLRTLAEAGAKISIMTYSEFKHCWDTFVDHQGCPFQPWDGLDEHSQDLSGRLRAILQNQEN

[27] = Luminescence Cell-Based Dose Confirmation HTS to Identify Activators of 5'UTR Stem-Loop Driven Alpha-Synuclein mRNA Translation in H4 Neuroglioblastoma Cells. [Related pubchem assays: 1829 (Project Summary), 1814 (Primary HTS)]; assay type: functional
[28] = Luminescence Cell-Based Dose Response HTS to Identify Activators of Luciferase Translation or Activity in H4 […] Cells. [Related pubchem assays: 1829 (Project Summary), 1814 (Primary HTS)]; assay type: functional
[29] = system: H4; assay: Luminescence Cell-Based Dose Response HTS to Identify Activators of 5'UTR Stem-Loop Driven Prion Protein mRNA Translation in H4 Neuroglioblastoma Cells. [Related pubchem assays: 1829 (Project Summary), 1814 (Primary HTS)]; assay type: functional; settings: Homo sapiens
[30] = system: SN12K1; assay: cells; assay type: functional; settings: Homo sapiens
[31] = system: INS1; assay: INS-1E survival protection against cytokine death – cell-based, luminescence, retest, dose response (AID 449756); assay type: functional; settings: Rattus norvegicus;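 further: cell death triggered by IL-1 beta plus TNF-alpha plus IFN-gamma mixture; protective hits raise ATP signal compared with cytokine alone wells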
[32] = target: Heat shock protein HSP 90-alpha (Homo sapiens, UniProt P07900); assay type: functional, organism-based

Sequence of 72 kDa type IV collagenase (P08253 whole entry): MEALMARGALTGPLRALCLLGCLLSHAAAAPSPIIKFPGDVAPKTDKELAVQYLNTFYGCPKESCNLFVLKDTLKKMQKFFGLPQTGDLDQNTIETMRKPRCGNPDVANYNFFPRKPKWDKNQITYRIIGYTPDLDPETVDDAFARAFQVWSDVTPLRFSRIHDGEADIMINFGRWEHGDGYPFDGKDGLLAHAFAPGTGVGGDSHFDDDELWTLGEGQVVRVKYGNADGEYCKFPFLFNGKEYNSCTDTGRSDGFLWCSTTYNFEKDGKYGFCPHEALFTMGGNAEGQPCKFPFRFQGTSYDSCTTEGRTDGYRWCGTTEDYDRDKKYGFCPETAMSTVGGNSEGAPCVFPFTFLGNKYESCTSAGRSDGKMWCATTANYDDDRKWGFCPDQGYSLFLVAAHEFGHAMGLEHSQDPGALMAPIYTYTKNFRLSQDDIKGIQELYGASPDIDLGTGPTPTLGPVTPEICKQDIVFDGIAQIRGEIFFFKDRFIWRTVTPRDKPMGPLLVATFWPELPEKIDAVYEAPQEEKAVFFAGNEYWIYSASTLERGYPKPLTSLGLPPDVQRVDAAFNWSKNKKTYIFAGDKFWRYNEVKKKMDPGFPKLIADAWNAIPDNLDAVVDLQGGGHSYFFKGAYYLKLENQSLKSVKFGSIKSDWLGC
Sequence of 26S proteasome non-ATPase regulatory subunit 14 (O00487 whole entry): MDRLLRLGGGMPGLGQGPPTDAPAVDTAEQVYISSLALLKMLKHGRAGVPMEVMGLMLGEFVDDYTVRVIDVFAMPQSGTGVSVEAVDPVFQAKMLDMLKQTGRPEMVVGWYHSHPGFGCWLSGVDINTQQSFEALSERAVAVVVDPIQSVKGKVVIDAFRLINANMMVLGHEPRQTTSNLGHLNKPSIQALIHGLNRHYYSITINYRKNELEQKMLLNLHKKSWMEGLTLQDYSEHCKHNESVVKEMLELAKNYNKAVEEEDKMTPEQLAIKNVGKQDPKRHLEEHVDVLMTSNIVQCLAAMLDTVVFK

## Cc1csc(NC(=O)CSc2nc3sc(C)c(C)c3c(=O)[nH]2)n1
[1]
  IC50: 24.3 µM (active)
[2]
  IC50: > 100 µM (inactive)
[3]
  IC50: 43.6 µM (active)

## CCn1c(=O)cc(SCC(=O)N2CCN(Cc3ccc4c(c3)OCO4)CC2)c2ccccc21
[4]
  EC50: > 79.4 µM (inactive)
[5]
  EC50: > 79.4 µM (not active)
[6]
  EC50: > 79.4 µM (not active)

## CCc1cc(=O)oc2cc(C)cc(O)c12
[4]
  EC50: > 79.4 µM (inactive)
[5]
  EC50: > 79.4 µM (not active)
[6]
  EC50: 21.1 µM (not active)

## CC1CC(N(C(=O)c2ccc(Cl)cc2)c2ccccc2)c2ccccc2N1C(=O)c1ccco1 (centres undefined)
[7]
  CC50: 15.1 µM (active)

## COc1ccccc1C1C2=C(O)OCC2=Nc2cc3c(cc21)OCO3 (centres undefined)
[8]
  EC50: 6.64 µM (inconclusive)
[9]
  EC50: 15.2 µM (inconclusive)
[10]
  EC50: 9.65 µM (inconclusive)
[11]
  EC50: 9.6 µM (inconclusive)
[12]
  EC50: < 0.104 µM (active)

## Cc1ccc(OCC(=O)OCC(=O)c2cccc([N+](=O)[O-])c2)cc1C
[13]
  EC50: > 40 µM (inactive)
[14]
  IC50: > 40 µM (not active)

## CCCCC(=O)Nc1sc2c(c1C(=O)OCC)CCC(C=O)=C2Cl
[15]
  CC50: > 40 µM (active)
[16]
  EC50: 5.83 µM (active)
[17]
  EC50: 5.91 µM (active)
[18]
  EC50: > 32 µM (inactive)
[19]
  AC50: 7.94 µM (inconclusive)

## CN(C)S(=O)(=O)c1ccc(C(=O)Nc2nc(-c3cc4ccccc4o3)cs2)cc1
[20]
  EC50: > 20 µM (inactive)
[21]
  IC50: 3.09 µM (active)
[22]
  IC50: > 20 µM (inactive)
[23]
  IC50: 2.85 µM (active)

## CCCCc1cc(=O)oc2c(CN(C)C)c(O)ccc12
[24]
  IC50: 30.2 µM (active)

## Cc1cc(-c2nnc(S)n2-c2ccc(C)c(C)c2)no1
[25]
  IC50: > 100 µM (inactive)
[26]
  IC50: 8.07 µM (active)

## C=CCn1c(=O)c2ccccc2n2c(S)nnc12
[25]
  IC50: > 100 µM (inactive)
[26]
  IC50: 2.61 µM (active)

## CCOc1ccc(CCNC(=O)CSc2cc(=O)n(C)c3ccccc23)cc1OCC
[4]
  EC50: > 79.4 µM (inactive)
[5]
  EC50: > 79.4 µM (not active)
[6]
  EC50: > 79.4 µM (not active)

## Cc1[nH]c(=S)c(C#N)c2c1CCCC2
[25]
  IC50: > 100 µM (inactive)
[26]
  IC50: 5.25 µM (active)

## COCCCn1c(=N)c(C(=O)NCC2CCCO2)cc2c(=O)n3ccccc3nc21 (centres undefined)
[24]
  IC50: 60.2 µM (active)

## CC(NC(=O)C1CCN(C(=O)c2cccs2)CC1)c1ccc(S(N)(=O)=O)cc1 (centres undefined)
[1]
  IC50: 9.98 µM (active)
[2]
  IC50: > 100 µM (inactive)
[3]
  IC50: > 100 µM (inactive)

## COc1ccc(NP(=O)(Oc2ccccc2OC)Oc2ccccc2OC)cc1
[4]
  EC50: > 79.4 µM (inactive)
[5]
  EC50: > 79.4 µM (not active)
[6]
  EC50: > 79.4 µM (not active)

## CN(C)CCCN(C(=O)c1cc(Cl)sc1Cl)c1nc2cc3c(cc2s1)OCO3
[18]
  EC50: > 32 µM (inactive)

## Cc1cc(C)n2nc(C(=O)NNC(=O)c3ccc(Cl)cc3)nc2n1
[24]
  IC50: 15.9 µM (active)
[27]
  EC50: > 120 µM (not active)
[28]
  EC50: 12.7 µM (active)
[29]
  EC50: > 120 µM (not active)

## O=C(OCC(=O)c1ccc(Cl)cc1Cl)c1ccccn1
[13]
  EC50: > 40 µM (inactive)
[14]
  IC50: 35.9 µM (not active)

## Cc1cc(C)c2sc(N(CCN(C)C)C(=O)c3cc(Cl)sc3Cl)nc2c1
[18]
  EC50: 26.2 µM (inactive)

## COc1cccc(N2[C@@H](CC(C)=O)c3ccc(/C=C/C(C)=O)cc3S2(=O)=O)c1
[7]
  CC50: 17.9 µM (active)

## c1ccc(CN2CCc3[nH]c4ccccc4c3C2)cc1
[30]
  GI50: 15.2 µM (inactive)

## Cc1ccc(NS(=O)(=O)c2cc([N+](=O)[O-])ccc2N/N=C/c2sc(N3CCOCC3)nc2-c2ccccc2)c(C)c1
[13]
  EC50: > 40 µM (inactive)
[14]
  IC50: > 40 µM (not active)
[18]
  EC50: < 0.5 µM (active)
[31]
  AC50: 4.62 µM (active)

## Cc1ccc(/N=C/c2c(C)[nH]n(-c3nc4ccccc4[nH]3)c2=O)cc1
[8]
  EC50: 2.84 µM (inconclusive)
[9]
  EC50: 3.03 µM (active)
[10]
  EC50: 3.62 µM (inconclusive)
[11]
  EC50: 2.83 µM (active)
[32]
  AC50: 5.84 µM (active)
[12]
  EC50: > 133 µM (inactive)
[31]
  AC50: 1.42 µM (active)

— ChEMBL document CHEMBL1201862, “PubChem BioAssay data set” (2004)
